Measurements: patent US10538555B2, “Macrocyclic inhibitors of the PD-1/PD-L1 and CD80(B7-1)/PD-L1 protein/protein interactions” (BRISTOL-MYERS SQUIBB COMPANY, priority 2014, dated 2020)
Where a SMILES comes first, the peptide text is derived from it. Bridges are numbered along the chain shown (N, C = ends). [ ]: non-standard residue; d: D form. ξ: configuration not given here. Trp(1-CH2COOH) = N[C@@H](Cc1cn(CC(=O)O)c2ccccc12)C(=O)O; Hyp = O=C(O)[C@@H]1C[C@@H](O)CN1; NMeNle = CCCC[C@H](NC)C(=O)O; NMeA = CN[C@@H](C)C(=O)O; Orn = NCCC[C@H](N)C(=O)O; Dab = NCC[C@H](N)C(=O)O; Dap = NC[C@H](N)C(=O)O; ξP = O=C(O)C1CCCN1

Target: T1, Human PD-L1/PD-1 (Homo sapiens, UniProt Q9NZQ7)
T1 construct: TVMV protease cleavage site (C); made in house; host or cells: HEK293T cells
T1 sequence (Q9NZQ7 with tags, fused parts or gaps): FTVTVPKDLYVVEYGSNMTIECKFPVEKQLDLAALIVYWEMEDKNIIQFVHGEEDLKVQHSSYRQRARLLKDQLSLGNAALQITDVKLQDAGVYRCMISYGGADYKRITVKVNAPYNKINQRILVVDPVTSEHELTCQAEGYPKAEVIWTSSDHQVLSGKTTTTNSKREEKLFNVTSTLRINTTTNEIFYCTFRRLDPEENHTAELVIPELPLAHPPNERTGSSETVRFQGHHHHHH
Test: HTRF Human PD-L1/PD-1 binding assay (PD-1-Ig/PD-L1-His)
Conditions: PD-L1-His 10 nM, PD-1-Ig 20 nM; class symbol; read-out: HTRF Human PD-L1/PD-1 Binding Assay IC50 Range
Procedure, shortened: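 Truncated Fc-fused human PD-1 (aa 25-167) at 20 nM and His-tagged PD-L1 (aa 18-239) at 10 nM final are used, with peptides preincubated 15 min with PD-L1. Detection uses europium-cryptate anti-Ig and APC anti-His antibodies; 665/620 nm ratio.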

SMILES	IC50 [nM]
CCCC[C@H]1C(=O)N(C)[C@@H](CCCC)C(=O)N[C@@H](CN)C(=O)N[C@H](C(=O)NCC(N)=O)CSCC(=O)N[C@@H](Cc2ccc(O)cc2)C(=O)N(C)[C@@H](C)C(=O)N[C@@H](CC(N)=O)C(=O)N2CCC[C@H]2C(=O)N[C@@H](CO)C(=O)N[C@@H](Cc2cnc[nH]2)C(=O)N2C[C@H](O)C[C@H]2C(=O)N[C@@H](Cc2c[nH]c3ccccc23)C(=O)N[C@@H](CCN)C(=O)N[C@@H](Cc2cn(CC(=O)O)c3ccccc23)C(=O)N1C [Example 6247] ({CH2CO}-Y[NMeA]NPSH[Hyp]W[Dab][Trp(1-CH2COOH)][NMeNle][NMeNle][Dap]CG-NH2; thioether N-14)	1 to 9.9
CCCC[C@H]1C(=O)N(C)[C@@H](CCCC)C(=O)N[C@@H](C)C(=O)N[C@H](C(=O)NCC(N)=O)CSCC(=O)N[C@@H](Cc2ccc(O)cc2)C(=O)N(C)[C@@H](C)C(=O)N[C@@H](CC(=O)O)C(=O)N2CCC[C@H]2C(=O)N[C@@H](Cc2cnc[nH]2)C(=O)N[C@@H](CCCN)C(=O)N2C[C@H](O)C[C@H]2C(=O)N[C@@H](Cc2c[nH]c3ccccc23)C(=O)N[C@@H](CO)C(=O)N[C@@H](Cc2cn(CC(=O)O)c3ccccc23)C(=O)N1C [Example 6249] ({CH2CO}-Y[NMeA]DPH[Orn][Hyp]WS[Trp(1-CH2COOH)][NMeNle][NMeNle]ACG-NH2; thioether N-14)	1 to 9.9
CCCC[C@H]1C(=O)N(C)[C@@H](CCCC)C(=O)N[C@@H](CCC(=O)O)C(=O)N[C@H](C(=O)NCC(N)=O)CSCC(=O)N[C@@H](Cc2ccc(O)cc2)C(=O)N(C)[C@@H](C)C(=O)N[C@@H](CC(N)=O)C(=O)N2CCCC2C(=O)N[C@@H](CO)C(=O)N[C@@H](CC(C)C)C(=O)N2C[C@H](O)C[C@H]2C(=O)N[C@@H](Cc2c[nH]c3ccccc23)C(=O)N[C@@H](CO)C(=O)N[C@@H](Cc2cn(CC(=O)O)c3ccccc23)C(=O)N1C (stereo partly drawn) [Example 6250] ({CH2CO}-Y[NMeA]N[ξP]SL[Hyp]WS[Trp(1-CH2COOH)][NMeNle][NMeNle]ECG-NH2; thioether N-14)	1 to 9.9
CCCC[C@H]1C(=O)N(C)[C@@H](CCCC)C(=O)N[C@@H](CC(C)C)C(=O)N[C@H](C(N)=O)CSCC(=O)N[C@@H](Cc2ccc(O)cc2)C(=O)N(C)[C@@H](C)C(=O)N[C@@H](CC(N)=O)C(=O)N2CCC[C@H]2C(=O)N[C@@H](CN)C(=O)N[C@@H](CC(C)C)C(=O)N2C[C@H](O)C[C@H]2C(=O)N[C@@H](Cc2c[nH]c3ccccc23)C(=O)N[C@@H](CC(=O)O)C(=O)N[C@@H](Cc2cn(CC(=O)O)c3ccccc23)C(=O)N1C [Example 6258] ({CH2CO}-Y[NMeA]NP[Dap]L[Hyp]WD[Trp(1-CH2COOH)][NMeNle][NMeNle]LC-NH2; thioether N-14)	10 to 99.9
CCCC[C@H]1C(=O)N(C)[C@@H](CCCC)C(=O)N[C@@H](CC(C)C)C(=O)N[C@H](C(=O)NCC(N)=O)CSCC(=O)N[C@@H](Cc2ccc(O)cc2)C(=O)N(C)[C@@H](C)C(=O)N[C@@H](CC(N)=O)C(=O)N[C@H](C)C(=O)N[C@@H](Cc2cnc[nH]2)C(=O)N[C@@H](CCC(N)=O)C(=O)N2C[C@H](O)C[C@H]2C(=O)N[C@@H](Cc2c[nH]c3ccccc23)C(=O)N[C@@H](CO)C(=O)N[C@@H](Cc2c[nH]c3ccccc23)C(=O)N1C [Example 6262] ({CH2CO}-Y[NMeA]N[dA]HQ[Hyp]WSW[NMeNle][NMeNle]LCG-NH2; thioether N-14)	1 to 9.9
CCCC[C@H]1C(=O)N(C)[C@@H](CCCC)C(=O)N[C@@H](CC(C)C)C(=O)N[C@H](C(=O)NCC(N)=O)CSCC(=O)N[C@@H](Cc2ccc(O)cc2)C(=O)N(C)[C@@H](C)C(=O)N[C@@H](CC(N)=O)C(=O)N2CCC[C@H]2C(=O)N[C@@H](CO)C(=O)N[C@@H](CCC(=O)O)C(=O)N2C[C@H](O)C[C@H]2C(=O)N[C@@H](Cc2c[nH]c3ccccc23)C(=O)N[C@@H](CCN)C(=O)N[C@@H](Cc2cn(CC(=O)O)c3ccccc23)C(=O)N1C [Example 6266] ({CH2CO}-Y[NMeA]NPSE[Hyp]W[Dab][Trp(1-CH2COOH)][NMeNle][NMeNle]LCG-NH2; thioether N-14)	10 to 99.9
